In test [1] the target is T1, system Xc^− (Homo sapiens, UniProt Q9UPY5).
T1 sequence (Q9UPY5 1-501): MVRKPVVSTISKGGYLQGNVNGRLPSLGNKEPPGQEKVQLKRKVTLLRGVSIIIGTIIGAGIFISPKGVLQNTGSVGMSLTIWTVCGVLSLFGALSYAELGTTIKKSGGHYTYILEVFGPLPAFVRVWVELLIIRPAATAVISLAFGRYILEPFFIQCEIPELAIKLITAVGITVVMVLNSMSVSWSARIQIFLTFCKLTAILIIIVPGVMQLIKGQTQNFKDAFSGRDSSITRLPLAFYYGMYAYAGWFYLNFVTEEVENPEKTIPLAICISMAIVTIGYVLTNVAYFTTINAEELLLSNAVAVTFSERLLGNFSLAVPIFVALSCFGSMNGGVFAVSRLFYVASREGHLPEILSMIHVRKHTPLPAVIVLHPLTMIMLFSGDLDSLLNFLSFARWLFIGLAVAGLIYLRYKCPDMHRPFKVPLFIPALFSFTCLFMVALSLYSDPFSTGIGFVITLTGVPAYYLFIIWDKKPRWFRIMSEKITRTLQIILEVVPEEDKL
T1 sequence (P08195 1-529 partner): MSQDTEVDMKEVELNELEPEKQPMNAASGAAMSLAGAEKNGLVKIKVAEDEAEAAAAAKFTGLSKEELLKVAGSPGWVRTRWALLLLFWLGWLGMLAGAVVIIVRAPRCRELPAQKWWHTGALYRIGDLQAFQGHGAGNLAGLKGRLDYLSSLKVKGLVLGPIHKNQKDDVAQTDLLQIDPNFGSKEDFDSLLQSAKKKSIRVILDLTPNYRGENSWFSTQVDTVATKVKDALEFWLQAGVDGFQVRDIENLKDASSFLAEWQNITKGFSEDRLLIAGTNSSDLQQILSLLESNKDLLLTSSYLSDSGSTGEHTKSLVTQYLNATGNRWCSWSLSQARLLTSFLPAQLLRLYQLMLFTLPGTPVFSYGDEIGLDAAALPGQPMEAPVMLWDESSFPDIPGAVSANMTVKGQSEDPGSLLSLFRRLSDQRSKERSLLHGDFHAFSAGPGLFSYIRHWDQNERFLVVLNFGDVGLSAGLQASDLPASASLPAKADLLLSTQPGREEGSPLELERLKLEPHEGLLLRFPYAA
As to the kind of experiment: Cystine-induced glutamate release assay. Format: cell-based. More on the design: endogenous in cells; host or cells: H4 cells. The settings on record: H4 cells, sodium-free HEPES buffer, 50 μM L-Cystine, 2 hours, Amplex Red glutamate readout; read-out: pIC50 Cystine-induced glutamate release assay (converted). Put shortly: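 IC50 (reported as pIC50) normalized to DMSO 1% and Erastin 50 μM controls, from Amplex Red fluorescence of glutamate exported into supernatant. H4 cells were washed into sodium-free buffer to exclude EAAT transport, then given compound with 50 μM L-cystine for 2 h in the incubator.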

The target in test [2] is T1, system Xc^−. Briefly: [^14C]L-Cystine uptake assay. In kind it is cell-based. More on the design: endogenous in cells; host or cells: H4 cells. The note with it: H4 cells, sodium-free HEPES buffer, 0.5 μM L-[14C]Cystine and 4.5 μM L-Cystine, 1 hour at 37° C.; read-out: pIC50 [^14C] L-Cystine uptake assay (converted). Put shortly: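 Compound effect is given as pIC50, taken between controls of 1% DMSO and 50 μM Erastin. Human H4 cells were pretreated 15 min with compound in sodium-free buffer, then took up 0.5 μM [14C]cystine with 4.5 μM cold cystine for 1 hour at 37° C, read by scintillation proximity counting.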

Molecules are shown by their SMILES. Some results are limits rather than exact numbers.

In the case of `[2H]C([2H])([2H])[C@H]1C(=O)N(CC(=O)Nc2ccc(C(F)(F)F)cc2)c2cc(C)nc(F)c2-c2cccnc21` (single isomer, unassigned) [#203, Enantiomer (10R) or (10S) of 2-[3-fluoro-5-methyl-9-oxo-10-(trideuteriomethyl)-4,8,12-triazatricyclo[9.4.0.0^2,7]pentadeca-1(15),2(7),3,5,11,13-hexaen-8-yl]-N-[4-(trifluoromethyl)phenyl]acetamide], the IC50 at system Xc^− [1] is 15.8 to 39.8 nM; at system Xc^− [2], < 15.8 nM.
The like results for `Cc1cc2c(c(F)n1)-c1cccc(C#N)c1CC(=O)N2CC(=O)Nc1ccc(C(F)(F)F)cc1` [#88, 2-(8-cyano-1-fluoro-3-methyl-6-oxo-7H-pyrido[4,3-d][3]benzazepin-5-yl)-N-[4-(trifluoromethyl)phenyl]acetamide] were, in that order, 39.8 to 100 nM and 39.8 to 100 nM.
As to `COc1cc(F)c2c(c1)N(CC(=O)Nc1ccc(Cl)c(F)c1)C(=O)C(C)c1ncncc1-2` (single isomer, unassigned) [#371, N-(4-chloro-3-fluoro-phenyl)-2-[11-fluoro-9-methoxy-5-methyl-6-oxo-5H-pyrimido[4,5-d][1]benzazepin-7-yl]acetamide], the IC50 on system Xc^− [1] and on system Xc^− [2] was < 15.8 nM in each case.
Regarding `CNc1cc2c(c(Cl)n1)-c1cccnc1CC(=O)N2CC(=O)Nc1ccc(C(F)(F)F)cc1` [#169, 2-[3-chloro-5-(methylamino)-9-oxo-4,8,12-triazatricyclo[9.4.0.0^2,7]pentadeca-1(11),2(7),3,5,12,14-hexaen-8-yl]-N-[4-(trifluoromethyl)phenyl]acetamide], the IC50 at system Xc^− [1] was 100 to 501 nM; at system Xc^− [2], 15.8 to 39.8 nM.
In the case of `Cc1cc2c(c(F)n1)-c1cccnc1[C@@H](C)C(=O)N2CC(=O)Nc1ccc(C(C)C)c(F)c1` [#244, 2-[(10R)-3-fluoro-5,10-dimethyl-9-oxo-4,8,12-triazatricyclo[9.4.0.0^2,7]pentadeca-1(11),2(7),3,5,12,14-hexaen-8-yl]-N-(3-fluoro-4-isopropyl-phenyl)acetamide], the IC50 on system Xc^− [1] and on system Xc^− [2] was 15.8 to 39.8 nM throughout.
Turning to `COc1cc2c(cn1)-c1cccnc1C(C)C(=O)N2CC(=O)Nc1ccc(C(F)F)cc1` (single isomer, unassigned) [#319, N-[4-(difluoromethyl)phenyl]-2-[5-methoxy-10-methyl-9-oxo-4,8,12-triazatricyclo[9.4.0.0^2,7]pentadeca-1(15),2(7),3,5,11,13-hexaen-8-yl]acetamide], the IC50 is 15.8 to 39.8 nM on system Xc^− [1] and 39.8 to 100 nM on system Xc^− [2].
On the same counts, the results for `Cc1cc2c(c(F)n1)-c1cccnc1[C@@H](C)C(=O)N2CC(=O)Nc1ccc(Cl)c(F)c1` (single isomer, unassigned) [#200, Enantiomer (10R) or (10S) of N-(4-chloro-3-fluoro-phenyl)-2-[3-fluoro-5,10-dimethyl-9-oxo-4,8,12-triazatricyclo[9.4.0.0^2,7]pentadeca-1(11),2(7),3,5,12,14-hexaen-8-yl]acetamide] are 15.8 to 39.8 nM and < 15.8 nM.
The like results for `O=C(CN1C(=O)Cc2ncccc2-c2c1cc(Cl)nc2Cl)Nc1ccc(C(F)(F)F)cc1` [#168, 2-(3,5-dichloro-9-oxo-4,8,12-triazatricyclo[9.4.0.0^2,7]pentadeca-1(11),2(7),3,5,12,14-hexaen-8-yl)-N-[4-(trifluoromethyl)phenyl]acetamide] were, in that order, 100 to 501 nM and 15.8 to 39.8 nM.
With `Cc1cc2c(c(C)n1)-c1ccc(Cl)cc1CC(=O)N2CC(=O)Nc1ccc(C(F)(F)F)cc1` [#62, 2-(9-chloro-1,3-dimethyl-6-oxo-7H-pyrido[4,3-d][3]benzazepin-5-yl)-N-[4-(trifluoromethyl)phenyl]acetamide], the IC50 was 15.8 to 39.8 nM at system Xc^− [1] and < 15.8 nM on system Xc^− [2].
The like results for `Cc1cc2c(cc1C)N(CC(=O)Nc1ccc(C(F)(F)F)cc1)C(=O)Cc1cccnc1-2` [#22, 2-(9,10-dimethyl-6-oxo-5H-pyrido[3,2-d][1]benzazepin-7-yl)-N-[4-(trifluoromethyl)phenyl]acetamide] were, in that order, 100 to 501 nM and 39.8 to 100 nM.
The like results for `Cc1cc2c(c(F)n1)-c1cccnc1[C@@H](C)C(=O)N2CC(=O)Nc1ccc(F)c(F)c1` [#140, N-(3,4-difluorophenyl)-2-[(10R)-3-fluoro-5,10-dimethyl-9-oxo-4,8,12-triazatricyclo[9.4.0.0^2,7]pentadeca-1(11),2(7),3,5,12,14-hexaen-8-yl]acetamide] were, in that order, 15.8 to 39.8 nM and 15.8 to 39.8 nM.
`Cc1cc2c(c(F)n1)-c1cc(F)cnc1C(C)C(=O)N2CC(=O)Nc1ccc(C(F)(F)F)nc1` (single isomer, unassigned) [#262, 2-[3,14-difluoro-5,10-dimethyl-9-oxo-4,8,12-triazatricyclo[9.4.0.0^2,7]pentadeca-1(11),2(7),3,5,12,14-hexaen-8-yl]-N-[6-(trifluoromethyl)-3-pyridyl]acetamide]: the IC50 on system Xc^− [1] and on system Xc^− [2] was 15.8 to 39.8 nM in each case.
For `Cc1cc2c(cn1)N(CC(=O)Nc1ccc(C(F)(F)F)cc1)C(=O)Cc1ccccc1-2` [#29, 2-(2-methyl-6-oxo-7H-pyrido[3,4-d] [3]benzazepin-5-yl)-N-[4-(trifluoro-methyl)phenyl] acetamide], the IC50 on system Xc^− [1] and at system Xc^− [2] was 100 to 501 nM throughout.
As for `CC1C(=O)N(CC(=O)Nc2ccc(Cl)c(F)c2)c2cc(Cl)cc(F)c2-c2ncncc21` (single isomer, unassigned) [#418, 2-[9-chloro-11-fluoro-5-methyl-6-oxo-5H-pyrimido[5,4-d][1]benzazepin-7-yl]-N-(4-chloro-3-fluoro-phenyl)acetamide], the IC50 at system Xc^− [1] and at system Xc^− [2] was 39.8 to 100 nM each time.
Take `Cc1cc2c(n(C)c1=O)-c1ccccc1N(C)C(=O)N2CC(=O)Nc1ccc(Cl)c(F)c1` [#166, N-(4-chloro-3-fluoro-phenyl)-2-(1,3,7-trimethyl-2,6-dioxo-pyrido[3,2-d][1,3]benzodiazepin-5-yl)acetamide]: the IC50 at system Xc^− [1] and on system Xc^− [2] was 15.8 to 39.8 nM in each case.
Regarding `Cc1cc2c(c(F)n1)-c1cccnc1[C@@H](C)C(=O)N2CC(=O)Nc1ccc(C2CC2)cc1` [#142, N-(4-cyclopropylphenyl)-2-[(10R)-3-fluoro-5,10-dimethyl-9-oxo-4,8,12-triazatricyclo[9.4.0.0^2,7]pentadeca-1(11),2(7),3,5,12,14-hexaen-8-yl]acetamide], the IC50 is 15.8 to 39.8 nM at system Xc^− [1] and < 15.8 nM on system Xc^− [2].
The like results for `Cc1cc2c(c(F)n1)-c1cnccc1C(C)C(=O)N2CC(=O)Nc1ccc(C(F)(F)F)cc1` (centres unmarked) [#180, 2-(3-fluoro-5,10-dimethyl-9-oxo-4,8,14-triazatricyclo[9.4.0.0^2,7]pentadeca-1(11),2(7),3,5,12,14-hexaen-8-yl)-N-[4-(trifluoromethyl)phenyl]acetamide] were, in that order, 39.8 to 100 nM and 15.8 to 39.8 nM.
The like results for `Cc1cc2c(c(Cl)n1)-c1cccnc1C(C)C(=O)N2CC(=O)Nc1ccc(Cl)c(F)c1` (single isomer, unassigned) [#117, 2-[3-chloro-5,10-dimethyl-9-oxo-4,8,12-triazatricyclo[9.4.0.0^2,7]pentadeca-1(15),2(7),3,5,11,13-hexaen-8-yl]-N-(4-chloro-3-fluorophenyl)acetamide] were, in that order, < 15.8 nM and < 15.8 nM.
On the same counts, the results for `Cc1cc2c(n(C)c1=O)-c1ccc(Cl)cc1C(C)C(=O)N2CC(=O)Nc1ccc(Cl)c(F)c1` (centres unmarked) [#181, N-(4-chloro-3-fluoro-phenyl)-2-(9-chloro-1,3,7-trimethyl-2,6-dioxo-7H-pyrido[3,2-d][3]benzazepin-5-yl)acetamide] are 15.8 to 39.8 nM and < 15.8 nM.
